How the values were obtained:
Details in all cases: binder
JNK3 = JNK3 (Homo sapiens, UniProt P53779)
CaMK1g = CaMK1g (Homo sapiens, UniProt Q96NX5)
CLK1 = CLK1 (Homo sapiens, UniProt P49759)
MRCKa = MRCKa (Homo sapiens, UniProt Q5VT25)
EphA7 = EphA7 (Homo sapiens, UniProt Q15375)
SRPK1 = SRPK1 (Homo sapiens, UniProt Q96SB4)
SRC = SRC (Homo sapiens, UniProt P12931)
FGFR1 = FGFR1 (Homo sapiens, UniProt P11362)
Erk3 = Erk3 (Homo sapiens, UniProt Q16659)
PIM1 = PIM1 (Homo sapiens, UniProt P11309)
MAPKAPK2 = MAPKAPK2 (Homo sapiens, UniProt P49137)
EphB3 = molecular target: T1, EphB3 (Homo sapiens, UniProt P54753)
T1 sequence (P54753 1-998): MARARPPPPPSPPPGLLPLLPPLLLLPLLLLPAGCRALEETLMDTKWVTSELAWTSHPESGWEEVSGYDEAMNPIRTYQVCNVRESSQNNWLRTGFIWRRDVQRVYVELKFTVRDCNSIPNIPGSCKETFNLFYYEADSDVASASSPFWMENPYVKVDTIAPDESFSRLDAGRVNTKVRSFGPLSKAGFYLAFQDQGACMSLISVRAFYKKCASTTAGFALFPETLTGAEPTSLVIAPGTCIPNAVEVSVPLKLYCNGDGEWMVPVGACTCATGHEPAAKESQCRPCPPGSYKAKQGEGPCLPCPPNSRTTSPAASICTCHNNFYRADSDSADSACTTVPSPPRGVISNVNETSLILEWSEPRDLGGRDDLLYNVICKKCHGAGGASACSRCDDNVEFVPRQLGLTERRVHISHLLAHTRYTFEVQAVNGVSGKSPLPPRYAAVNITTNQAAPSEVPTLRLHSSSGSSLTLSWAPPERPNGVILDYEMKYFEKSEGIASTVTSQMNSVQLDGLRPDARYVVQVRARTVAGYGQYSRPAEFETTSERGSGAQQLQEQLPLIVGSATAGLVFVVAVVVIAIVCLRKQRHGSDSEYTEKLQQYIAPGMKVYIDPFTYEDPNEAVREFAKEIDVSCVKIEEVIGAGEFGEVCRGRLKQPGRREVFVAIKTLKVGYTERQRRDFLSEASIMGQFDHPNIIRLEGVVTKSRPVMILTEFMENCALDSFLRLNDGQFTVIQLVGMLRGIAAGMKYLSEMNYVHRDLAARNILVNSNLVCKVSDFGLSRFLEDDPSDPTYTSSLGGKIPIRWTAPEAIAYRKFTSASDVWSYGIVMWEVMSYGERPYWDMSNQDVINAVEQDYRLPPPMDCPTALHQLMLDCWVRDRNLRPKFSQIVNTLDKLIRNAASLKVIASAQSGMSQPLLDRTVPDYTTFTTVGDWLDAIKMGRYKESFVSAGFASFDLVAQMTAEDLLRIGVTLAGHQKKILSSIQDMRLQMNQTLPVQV

CaMK2b = CaMK2b (Homo sapiens, UniProt Q13554)
CK1d = CK1d (Homo sapiens, UniProt P48730)
CK1d, sequence (P48730 whole entry): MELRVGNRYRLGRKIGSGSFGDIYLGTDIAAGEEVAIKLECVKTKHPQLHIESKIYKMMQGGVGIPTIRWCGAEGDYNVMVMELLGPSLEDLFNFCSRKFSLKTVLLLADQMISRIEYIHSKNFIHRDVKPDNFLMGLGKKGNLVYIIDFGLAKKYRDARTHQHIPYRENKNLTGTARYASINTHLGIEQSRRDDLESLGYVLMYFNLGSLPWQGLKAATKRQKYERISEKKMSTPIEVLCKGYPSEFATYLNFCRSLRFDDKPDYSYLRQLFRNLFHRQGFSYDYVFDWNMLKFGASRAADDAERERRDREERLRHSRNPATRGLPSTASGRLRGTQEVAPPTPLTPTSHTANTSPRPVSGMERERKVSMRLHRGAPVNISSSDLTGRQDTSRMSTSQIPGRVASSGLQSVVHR

AurA = molecular target: T2, AurA (Homo sapiens, UniProt O14965)
T2 sequence (O14965 1-403): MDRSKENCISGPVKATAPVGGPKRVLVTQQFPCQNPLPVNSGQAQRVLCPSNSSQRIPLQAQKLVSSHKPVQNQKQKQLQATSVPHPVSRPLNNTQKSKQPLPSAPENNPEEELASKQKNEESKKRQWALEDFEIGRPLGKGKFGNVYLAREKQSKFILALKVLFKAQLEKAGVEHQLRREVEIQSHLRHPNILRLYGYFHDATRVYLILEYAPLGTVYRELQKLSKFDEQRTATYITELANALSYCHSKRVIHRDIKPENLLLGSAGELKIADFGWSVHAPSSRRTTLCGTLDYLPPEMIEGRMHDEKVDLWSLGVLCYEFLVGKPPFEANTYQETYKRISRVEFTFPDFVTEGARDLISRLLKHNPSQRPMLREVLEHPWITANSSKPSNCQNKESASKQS

MSK1b = MSK1b (Homo sapiens, UniProt O75582)
Erk2 = Erk2 (Homo sapiens, UniProt P28482)

Erk3, sequence (Q16659 whole entry): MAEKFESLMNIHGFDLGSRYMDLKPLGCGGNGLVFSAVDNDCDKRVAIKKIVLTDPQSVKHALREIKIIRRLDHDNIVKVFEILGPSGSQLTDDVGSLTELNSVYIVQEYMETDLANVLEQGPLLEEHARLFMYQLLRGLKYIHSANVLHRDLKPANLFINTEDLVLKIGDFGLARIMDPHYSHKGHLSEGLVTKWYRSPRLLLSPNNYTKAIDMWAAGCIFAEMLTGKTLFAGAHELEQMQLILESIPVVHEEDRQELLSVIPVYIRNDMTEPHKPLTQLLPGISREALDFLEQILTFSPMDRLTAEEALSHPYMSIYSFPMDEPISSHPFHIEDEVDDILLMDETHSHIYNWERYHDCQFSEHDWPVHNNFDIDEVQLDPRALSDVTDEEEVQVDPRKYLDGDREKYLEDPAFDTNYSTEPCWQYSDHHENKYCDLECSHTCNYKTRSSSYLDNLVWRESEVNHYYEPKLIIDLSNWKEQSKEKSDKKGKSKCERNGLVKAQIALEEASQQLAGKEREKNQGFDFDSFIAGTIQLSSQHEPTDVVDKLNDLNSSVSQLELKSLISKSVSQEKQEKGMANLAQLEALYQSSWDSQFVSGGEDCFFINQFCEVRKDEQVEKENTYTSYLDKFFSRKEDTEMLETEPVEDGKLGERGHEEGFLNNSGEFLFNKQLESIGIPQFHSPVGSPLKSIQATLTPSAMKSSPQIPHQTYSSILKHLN
CaMK1g, sequence (Q96NX5 whole entry): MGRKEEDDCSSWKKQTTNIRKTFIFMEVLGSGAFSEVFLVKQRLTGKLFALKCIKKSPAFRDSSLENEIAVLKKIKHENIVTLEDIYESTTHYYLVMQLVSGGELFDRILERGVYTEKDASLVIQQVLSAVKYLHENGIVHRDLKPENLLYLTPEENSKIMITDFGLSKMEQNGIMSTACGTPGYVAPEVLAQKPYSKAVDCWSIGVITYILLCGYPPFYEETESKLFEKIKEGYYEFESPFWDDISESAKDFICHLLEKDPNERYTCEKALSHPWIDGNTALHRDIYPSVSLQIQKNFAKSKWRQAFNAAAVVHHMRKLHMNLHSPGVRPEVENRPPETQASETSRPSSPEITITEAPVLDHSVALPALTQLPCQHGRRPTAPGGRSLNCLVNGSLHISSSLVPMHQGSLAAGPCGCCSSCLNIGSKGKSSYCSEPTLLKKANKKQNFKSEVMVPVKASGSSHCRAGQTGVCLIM
EphA7, sequence (Q15375 whole entry): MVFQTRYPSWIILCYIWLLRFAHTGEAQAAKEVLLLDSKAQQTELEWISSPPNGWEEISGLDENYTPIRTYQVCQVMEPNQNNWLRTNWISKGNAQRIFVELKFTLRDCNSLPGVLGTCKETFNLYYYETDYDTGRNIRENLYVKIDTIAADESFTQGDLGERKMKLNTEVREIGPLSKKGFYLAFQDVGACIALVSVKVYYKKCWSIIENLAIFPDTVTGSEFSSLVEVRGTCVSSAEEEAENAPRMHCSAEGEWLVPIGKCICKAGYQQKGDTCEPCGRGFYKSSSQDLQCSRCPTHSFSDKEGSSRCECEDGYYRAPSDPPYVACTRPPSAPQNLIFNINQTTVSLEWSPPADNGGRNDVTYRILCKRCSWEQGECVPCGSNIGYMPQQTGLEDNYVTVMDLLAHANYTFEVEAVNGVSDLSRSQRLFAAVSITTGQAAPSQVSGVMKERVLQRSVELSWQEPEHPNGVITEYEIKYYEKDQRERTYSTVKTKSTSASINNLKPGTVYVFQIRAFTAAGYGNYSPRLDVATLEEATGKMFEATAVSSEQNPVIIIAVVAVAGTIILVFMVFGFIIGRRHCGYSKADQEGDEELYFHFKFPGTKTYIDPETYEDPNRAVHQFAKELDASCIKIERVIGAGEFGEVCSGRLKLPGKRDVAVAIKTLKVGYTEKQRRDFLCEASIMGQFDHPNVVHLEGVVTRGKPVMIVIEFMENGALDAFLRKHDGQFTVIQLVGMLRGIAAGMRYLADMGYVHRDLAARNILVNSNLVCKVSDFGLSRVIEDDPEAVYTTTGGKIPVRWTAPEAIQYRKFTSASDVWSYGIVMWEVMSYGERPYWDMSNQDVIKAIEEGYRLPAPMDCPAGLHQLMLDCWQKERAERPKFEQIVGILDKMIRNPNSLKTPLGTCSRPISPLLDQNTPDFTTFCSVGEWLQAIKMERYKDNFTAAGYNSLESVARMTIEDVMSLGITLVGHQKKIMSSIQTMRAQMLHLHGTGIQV
FGFR1, sequence (P11362 whole entry): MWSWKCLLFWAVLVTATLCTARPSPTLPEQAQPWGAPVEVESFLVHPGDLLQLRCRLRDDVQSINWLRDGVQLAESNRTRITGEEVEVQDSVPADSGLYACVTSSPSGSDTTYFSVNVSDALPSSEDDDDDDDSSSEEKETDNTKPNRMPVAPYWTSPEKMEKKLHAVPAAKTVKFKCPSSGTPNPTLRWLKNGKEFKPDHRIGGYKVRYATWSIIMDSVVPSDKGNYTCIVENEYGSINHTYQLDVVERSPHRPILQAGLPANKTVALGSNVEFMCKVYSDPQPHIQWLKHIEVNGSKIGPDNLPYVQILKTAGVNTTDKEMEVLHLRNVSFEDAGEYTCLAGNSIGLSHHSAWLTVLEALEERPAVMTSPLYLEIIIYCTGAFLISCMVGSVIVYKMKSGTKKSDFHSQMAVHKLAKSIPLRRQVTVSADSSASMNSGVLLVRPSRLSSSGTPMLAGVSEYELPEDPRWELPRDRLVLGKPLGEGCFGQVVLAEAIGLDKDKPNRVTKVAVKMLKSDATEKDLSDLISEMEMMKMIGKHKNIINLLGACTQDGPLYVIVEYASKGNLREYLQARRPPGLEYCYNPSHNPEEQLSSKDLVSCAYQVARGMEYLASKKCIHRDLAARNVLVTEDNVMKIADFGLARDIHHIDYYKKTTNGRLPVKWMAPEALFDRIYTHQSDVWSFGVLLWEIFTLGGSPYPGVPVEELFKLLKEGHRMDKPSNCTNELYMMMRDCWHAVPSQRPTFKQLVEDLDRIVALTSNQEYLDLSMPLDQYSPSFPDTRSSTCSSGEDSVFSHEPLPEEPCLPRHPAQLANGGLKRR
PIM1, sequence (P11309 whole entry): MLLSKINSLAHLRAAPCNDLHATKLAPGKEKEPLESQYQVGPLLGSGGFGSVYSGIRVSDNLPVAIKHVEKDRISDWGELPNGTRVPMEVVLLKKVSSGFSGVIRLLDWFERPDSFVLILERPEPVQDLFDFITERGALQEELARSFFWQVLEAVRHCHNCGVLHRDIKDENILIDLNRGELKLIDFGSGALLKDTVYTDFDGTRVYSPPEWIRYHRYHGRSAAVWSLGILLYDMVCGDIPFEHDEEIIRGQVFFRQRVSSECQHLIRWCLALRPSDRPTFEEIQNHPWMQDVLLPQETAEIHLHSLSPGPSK
SRPK1, sequence (Q96SB4 whole entry): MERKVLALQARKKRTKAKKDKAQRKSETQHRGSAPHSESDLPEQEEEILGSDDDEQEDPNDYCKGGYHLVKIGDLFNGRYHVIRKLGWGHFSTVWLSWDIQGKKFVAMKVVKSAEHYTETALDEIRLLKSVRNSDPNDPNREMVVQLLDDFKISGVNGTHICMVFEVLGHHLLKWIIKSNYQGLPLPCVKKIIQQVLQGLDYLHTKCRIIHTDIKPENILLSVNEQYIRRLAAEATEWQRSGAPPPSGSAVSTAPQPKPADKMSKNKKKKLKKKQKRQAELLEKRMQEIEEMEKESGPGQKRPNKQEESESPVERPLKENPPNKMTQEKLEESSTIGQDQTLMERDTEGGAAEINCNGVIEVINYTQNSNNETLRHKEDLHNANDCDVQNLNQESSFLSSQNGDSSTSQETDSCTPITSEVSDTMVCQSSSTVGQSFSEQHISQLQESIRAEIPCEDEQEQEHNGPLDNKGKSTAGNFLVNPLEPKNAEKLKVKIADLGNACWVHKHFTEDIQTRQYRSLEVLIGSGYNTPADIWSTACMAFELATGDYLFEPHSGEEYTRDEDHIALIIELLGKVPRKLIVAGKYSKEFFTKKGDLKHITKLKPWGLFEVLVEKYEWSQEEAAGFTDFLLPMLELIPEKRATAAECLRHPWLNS
SRC, sequence (P12931 whole entry): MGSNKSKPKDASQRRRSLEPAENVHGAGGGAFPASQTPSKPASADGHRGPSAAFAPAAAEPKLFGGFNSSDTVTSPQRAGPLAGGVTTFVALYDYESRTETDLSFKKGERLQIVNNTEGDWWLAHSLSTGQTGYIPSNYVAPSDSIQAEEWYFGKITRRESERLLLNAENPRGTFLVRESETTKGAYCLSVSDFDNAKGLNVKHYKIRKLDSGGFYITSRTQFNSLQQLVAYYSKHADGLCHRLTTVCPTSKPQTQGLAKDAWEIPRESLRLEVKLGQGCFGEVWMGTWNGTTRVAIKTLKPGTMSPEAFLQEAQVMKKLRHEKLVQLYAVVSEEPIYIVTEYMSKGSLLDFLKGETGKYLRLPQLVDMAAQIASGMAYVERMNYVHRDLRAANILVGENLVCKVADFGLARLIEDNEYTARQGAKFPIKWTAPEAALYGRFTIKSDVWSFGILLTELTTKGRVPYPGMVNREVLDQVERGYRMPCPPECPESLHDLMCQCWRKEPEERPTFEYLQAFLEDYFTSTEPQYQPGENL

COc1cc(N2CCN(C)CC2)ccc1Nc1ncc2cc(-c3ccc(-c4cccc(C)n4)cc3Cl)c(=O)n(CCCCN)c2n1 [compound 36, 8-(4-Aminobutyl)-6-(2-chloro-4-(6-methylpyridin-2-yl)phenyl)-2-((2-methoxy-4-(4-methylpiperazin-1-yl)phenyl)amino)pyrido[2,3-d]pyrimidin-7(8H)-one]
dTm 36 (JNK3): 1.1 °C
dTm 36 (CaMK1g): 7.0 °C
dTm 36 (CLK1): -0.9 °C
dTm 36 (MRCKa): -0.9 °C
dTm 36 (EphA7): 5.0 °C
dTm 36 (SRPK1): 0.0 °C
dTm 36 (SRC): 4.1 °C
dTm 36 (FGFR1): 2.0 °C
dTm 36 (Erk3): 0.5 °C
dTm 36 (PIM1): -0.1 °C
dTm 36 (MAPKAPK2): -0.1 °C
dTm 36 (EphB3): 3.3 °C
dTm 36 (CaMK2b): -0.6 °C
dTm 36 (CK1d): 1.1 °C
dTm 36 (AurA): 5.1 °C
dTm 36 (MSK1b): 3.0 °C
dTm 36 (Erk2): -2.7 °C

COc1ccc(O)c(Nc2ncc3cc(-c4ccc(-c5cccc(C)n5)cc4Cl)c(=O)n(CCCCN)c3n2)c1 [compound 34, 8-(4-Aminobutyl)-6-(2-chloro-4-(6-methylpyridin-2-yl)phenyl)-2-((2-hydroxy-5-methoxy-phenyl)amino)pyrido[2,3-d]pyrimidin-7(8H)-one]
dTm 34 (JNK3): 3.0 °C
dTm 34 (CaMK1g): 3.8 °C
dTm 34 (CLK1): -0.3 °C
dTm 34 (MRCKa): 0.8 °C
dTm 34 (EphA7): 3.4 °C
dTm 34 (SRPK1): 0.1 °C
dTm 34 (SRC): 3.1 °C
dTm 34 (FGFR1): 0.9 °C
dTm 34 (Erk3): 0.7 °C
dTm 34 (PIM1): 2.7 °C
dTm 34 (MAPKAPK2): -0.1 °C
dTm 34 (EphB3): 4.1 °C
dTm 34 (CaMK2b): -0.8 °C
dTm 34 (CK1d): 1.3 °C
dTm 34 (AurA): 3.4 °C
dTm 34 (MSK1b): 2.4 °C
dTm 34 (Erk2): -2.7 °C

COc1cc(N2CCOCC2)ccc1Nc1ncc2cc(-c3ccc(-c4cccc(C)n4)cc3Cl)c(=O)n(CCCCN)c2n1 [compound 35, 8-(4-Aminobutyl)-6-(2-chloro-4-(6-methylpyridin-2-yl)phenyl)-2-((2-methoxy-4-morpholino-phenyl)amino)pyrido[2,3-d]pyrimidin-7(8H)-one]
dTm 35 (JNK3): 2.3 °C
dTm 35 (CaMK1g): 7.1 °C
dTm 35 (CLK1): -1.6 °C
dTm 35 (MRCKa): -2.1 °C
dTm 35 (EphA7): 5.8 °C
dTm 35 (SRPK1): -0.5 °C
dTm 35 (SRC): 4.4 °C
dTm 35 (FGFR1): 0.4 °C
dTm 35 (Erk3): 0.6 °C
dTm 35 (PIM1): -0.9 °C
dTm 35 (MAPKAPK2): -0.6 °C
dTm 35 (EphB3): 4.5 °C
dTm 35 (CaMK2b): -1.4 °C
dTm 35 (CK1d): 1.8 °C
dTm 35 (AurA): 8.6 °C
dTm 35 (MSK1b): 3.8 °C
dTm 35 (Erk2): -3.0 °C

Cc1cccc(-c2ccc(-c3cc4cnc(Nc5ccc(F)c(CO)c5)nc4n(CCCCN)c3=O)c(Cl)c2)n1 [compound 33, 8-(4-Aminobutyl)-6-(2-chloro-4-(6-methylpyridin-2-yl)phenyl)-2-((4-fluoro-3-(hydroxymethyl)phenyl)amino)pyrido[2,3-d]pyrimidin-7(8H)-one]
dTm 33 (JNK3): 5.2 °C
dTm 33 (CaMK1g): 6.7 °C
dTm 33 (CLK1): -0.2 °C
dTm 33 (MRCKa): 1.9 °C
dTm 33 (EphA7): 5.3 °C
dTm 33 (SRPK1): -0.2 °C
dTm 33 (SRC): 4.7 °C
dTm 33 (FGFR1): 2.0 °C
dTm 33 (Erk3): 0.9 °C
dTm 33 (PIM1): 3.3 °C
dTm 33 (MAPKAPK2): -0.5 °C
dTm 33 (EphB3): 8.7 °C
dTm 33 (CaMK2b): -0.2 °C
dTm 33 (CK1d): 2.2 °C
dTm 33 (AurA): 2.8 °C
dTm 33 (MSK1b): 3.5 °C
dTm 33 (Erk2): -0.7 °C

Reference: paper doi:10.1101/2023.11.24.568596v1 (biorxiv, 2023)
